In patent publication US20100298141A1, “SUBSTITUTED PYRIDINE N-OXIDE HERBICIDES” (E. I. DU PONT DE NEMOURS AND COMPANY, priority 2007, published 2010):

Tests used:
Assay in all cases: Test F preemergence test
quackgrass = assay type: in vivo, Elytrigia repens; conditions: scale 0 to 100
How it was run: (§1)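 Compound in a non-phytotoxic solvent blend with surfactant is applied preemergence to planted seeds or postemergence to sugarcane plants. Plants and controls stay in the greenhouse 14 to 21 days before visual comparison.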

common groundsel = assay type: in vivo, Senecio vulgaris; conditions: scale 0 to 100; for Groundsel plant response rating: 125 g ai/ha
How it was run: as §1

southern sandbur = assay type: in vivo, Cenchrus echinatus; conditions: scale 0 to 100; for Sandbur plant response rating: 125 g ai/ha
How it was run: as §1

common ragweed = assay type: in vivo, Ambrosia elation; conditions: scale 0 to 100; for Ragweed plant response rating: 125 g ai/ha
How it was run: as §1

common purslane = assay type: in vivo, Portulaca oleracea; conditions: scale 0 to 100
How it was run: as §1

johnsongrass = assay type: in vivo, Sorghum halepense; conditions: scale 0 to 100
How it was run: as §1

purple nutsedge = assay type: in vivo, Cyperus rotundus; conditions: scale 0 to 100
How it was run: as §1

naked crabgrass = assay type: in vivo, Digitaria nuda; conditions: scale 0 to 100
How it was run: as §1

large crabgrass = assay type: in vivo, Digitaria sanguinalis; conditions: scale 0 to 100
How it was run: as §1

prickly sida = assay type: in vivo, Sida spinosa; conditions: scale 0 to 100
How it was run: as §1

pitted morningglory = assay type: in vivo, Ipomoea lacunosa; conditions: scale 0 to 100
How it was run: as §1

Italian ryegrass = assay type: in vivo, Lolium multiflorum; conditions: scale 0 to 100; for Ryegrass, Italian plant response rating: 125 g ai/ha
How it was run: as §1

kochia = assay type: in vivo, Kochia scoparia; conditions: scale 0 to 100
How it was run: as §1

guineagrass = assay type: in vivo, Panicum maximum; conditions: scale 0 to 100
How it was run: as §1

Surinam grass = assay type: in vivo, Brachiaria decumbens; conditions: scale 0 to 100; for Surinam Grass plant response rating: 125 g ai/ha
How it was run: as §1

goosegrass = assay type: in vivo, Eleusine indica; conditions: scale 0 to 100
How it was run: as §1

bermudagrass = assay type: in vivo, Cynodon dactylon; conditions: scale 0 to 100
How it was run: as §1

CC(c1c(C(F)(F)F)nn(C)c1OCC(F)(F)F)S(=O)(=O)c1cccc[n+]1[O-] (racemic) [Compound 33]
Plant response rating, Quackgrass (quackgrass; 16 g ai/ha, preemergence): 0
Quackgrass plant response rating (quackgrass; 62 g ai/ha, Preemergence): 75
Quackgrass plant response rating (quackgrass; 125 g ai/ha, preemergence): 95
Plant response rating, Quackgrass (quackgrass; Preemergence, 31 g ai/ha): 25
Groundsel plant response rating (common groundsel; preemergence): 100
Plant response rating, Sandbur (southern sandbur; 16 g ai/ha, preemergence): 100
Sandbur plant response rating (southern sandbur; preemergence): 100
Plant response rating, Sandbur (southern sandbur; Preemergence, 62 g ai/ha): 100
Plant response rating, Sandbur (southern sandbur; Preemergence, 31 g ai/ha): 100
Plant response rating, Ragweed (common ragweed; 16 g ai/ha, preemergence): 20
Ragweed plant response rating (common ragweed; preemergence): 75
Plant response rating, Ragweed (common ragweed; Preemergence, 62 g ai/ha): 60
Plant response rating, Ragweed (common ragweed; Preemergence, 31 g ai/ha): 40
Plant response rating, Purslane (common purslane; 16 g ai/ha, preemergence): 0
Purslane plant response rating (common purslane; 62 g ai/ha, Preemergence): 65
Purslane plant response rating (common purslane; 125 g ai/ha, preemergence): 100
Plant response rating, Purslane (common purslane; Preemergence, 31 g ai/ha): 20
Plant response rating, Johnsongrass (johnsongrass; 16 g ai/ha, preemergence): 30
Johnsongrass plant response rating (johnsongrass; 62 g ai/ha, Preemergence): 100
Johnsongrass plant response rating (johnsongrass; 125 g ai/ha, preemergence): 100
Plant response rating, Johnsongrass (johnsongrass; Preemergence, 31 g ai/ha): 60
Plant response rating, Purple Nutsedge (purple nutsedge; 16 g ai/ha, preemergence): 0
Purple Nutsedge plant response rating (purple nutsedge; 62 g ai/ha, Preemergence): 85
Purple Nutsedge plant response rating (purple nutsedge; 125 g ai/ha, preemergence): 85
Plant response rating, Purple Nutsedge (purple nutsedge; Preemergence, 31 g ai/ha): 35
Plant response rating, Crabgrass, Naked (naked crabgrass; 16 g ai/ha, preemergence): 75
Crabgrass, Naked plant response rating (naked crabgrass; 62 g ai/ha, Preemergence): 100
Crabgrass, Naked plant response rating (naked crabgrass; 125 g ai/ha, preemergence): 100
Plant response rating, Crabgrass, Large (large crabgrass; 16 g ai/ha, preemergence): 15
Crabgrass, Large plant response rating (large crabgrass; 62 g ai/ha, Preemergence): 85
Crabgrass, Large plant response rating (large crabgrass; 125 g ai/ha, preemergence): 100
Plant response rating, Crabgrass, Large (large crabgrass; Preemergence, 31 g ai/ha): 35
Plant response rating, Prickly Sida (prickly sida; 16 g ai/ha, preemergence): 25
Prickly Sida plant response rating (prickly sida; 62 g ai/ha, Preemergence): 90
Prickly Sida plant response rating (prickly sida; 125 g ai/ha, preemergence): 100
Plant response rating, Prickly Sida (prickly sida; Preemergence, 31 g ai/ha): 90
Plant response rating, Morningglory (pitted morningglory; 16 g ai/ha, preemergence): 0
Morningglory plant response rating (pitted morningglory; 62 g ai/ha, Preemergence): 98
Morningglory plant response rating (pitted morningglory; 125 g ai/ha, preemergence): 100
Plant response rating, Morningglory (pitted morningglory; Preemergence, 31 g ai/ha): 15
Plant response rating, Ryegrass, Italian (Italian ryegrass; 16 g ai/ha, preemergence): 60
Ryegrass, Italian plant response rating (Italian ryegrass; preemergence): 100
Plant response rating, Ryegrass, Italian (Italian ryegrass; Preemergence, 62 g ai/ha): 100
Plant response rating, Ryegrass, Italian (Italian ryegrass; Preemergence, 31 g ai/ha): 100
Plant response rating, Kochia (kochia; 16 g ai/ha, preemergence): 0
Kochia plant response rating (kochia; 62 g ai/ha, Preemergence): 70
Kochia plant response rating (kochia; 125 g ai/ha, preemergence): 100
Plant response rating, Kochia (kochia; Preemergence, 31 g ai/ha): 50
Plant response rating, Guineagrass (guineagrass; 16 g ai/ha, preemergence): 70
Guineagrass plant response rating (guineagrass; 62 g ai/ha, Preemergence): 100
Guineagrass plant response rating (guineagrass; 125 g ai/ha, preemergence): 100
Plant response rating, Guineagrass (guineagrass; Preemergence, 31 g ai/ha): 100
Plant response rating, Surinam Grass (Surinam grass; 16 g ai/ha, preemergence): 20
Surinam Grass plant response rating (Surinam grass; preemergence): 100
Plant response rating, Surinam Grass (Surinam grass; Preemergence, 31 g ai/ha): 100
Plant response rating, Goosegrass (goosegrass; 16 g ai/ha, preemergence): 60
Goosegrass plant response rating (goosegrass; 62 g ai/ha, Preemergence): 98
Goosegrass plant response rating (goosegrass; 125 g ai/ha, preemergence): 100
Plant response rating, Goosegrass (goosegrass; Preemergence, 31 g ai/ha): 95
Plant response rating, Bermudagrass (bermudagrass; 16 g ai/ha, preemergence): 40
Bermudagrass plant response rating (bermudagrass; 62 g ai/ha, Preemergence): 70
Bermudagrass plant response rating (bermudagrass; 125 g ai/ha, preemergence): 100
Plant response rating, Bermudagrass (bermudagrass; Preemergence, 31 g ai/ha): 60

Cn1nc(C(F)(F)F)c(C[S+]([O-])c2ccc(Cl)c[n+]2[O-])c1OCC(F)F (stereo not shown) [Compound 85]
Plant response rating, Quackgrass (quackgrass; 16 g ai/ha, preemergence): 20
Quackgrass plant response rating (quackgrass; 125 g ai/ha, preemergence): 95
Plant response rating, Quackgrass (quackgrass; Preemergence, 62 g ai/ha): 80
Plant response rating, Quackgrass (quackgrass; Preemergence, 31 g ai/ha): 65
Plant response rating, Groundsel (common groundsel; 16 g ai/ha, preemergence): 0
Groundsel plant response rating (common groundsel; preemergence): 65
Plant response rating, Groundsel (common groundsel; Preemergence, 62 g ai/ha): 0
Plant response rating, Groundsel (common groundsel; Preemergence, 31 g ai/ha): 0
Plant response rating, Sandbur (southern sandbur; 16 g ai/ha, preemergence): 10
Sandbur plant response rating (southern sandbur; preemergence): 100
Plant response rating, Sandbur (southern sandbur; Preemergence, 62 g ai/ha): 100
Plant response rating, Sandbur (southern sandbur; Preemergence, 31 g ai/ha): 70
Plant response rating, Ragweed (common ragweed; 16 g ai/ha, preemergence): 0
Ragweed plant response rating (common ragweed; preemergence): 80
Plant response rating, Ragweed (common ragweed; Preemergence, 62 g ai/ha): 80
Plant response rating, Ragweed (common ragweed; Preemergence, 31 g ai/ha): 20
Plant response rating, Purslane (common purslane; 16 g ai/ha, preemergence): 0
Purslane plant response rating (common purslane; 125 g ai/ha, preemergence): 60
Plant response rating, Purslane (common purslane; Preemergence, 62 g ai/ha): 60
Plant response rating, Purslane (common purslane; Preemergence, 31 g ai/ha): 25
Plant response rating, Johnsongrass (johnsongrass; 16 g ai/ha, preemergence): 40
Johnsongrass plant response rating (johnsongrass; 125 g ai/ha, preemergence): 98
Plant response rating, Johnsongrass (johnsongrass; Preemergence, 62 g ai/ha): 90
Plant response rating, Johnsongrass (johnsongrass; Preemergence, 31 g ai/ha): 75
Plant response rating, Purple Nutsedge (purple nutsedge; 16 g ai/ha, preemergence): 0
Purple Nutsedge plant response rating (purple nutsedge; 125 g ai/ha, preemergence): 65
Plant response rating, Purple Nutsedge (purple nutsedge; Preemergence, 62 g ai/ha): 50
Plant response rating, Purple Nutsedge (purple nutsedge; Preemergence, 31 g ai/ha): 0
Plant response rating, Crabgrass, Naked (naked crabgrass; 16 g ai/ha, preemergence): 75
Crabgrass, Naked plant response rating (naked crabgrass; 125 g ai/ha, preemergence): 95
Plant response rating, Crabgrass, Naked (naked crabgrass; Preemergence, 62 g ai/ha): 90
Plant response rating, Crabgrass, Naked (naked crabgrass; Preemergence, 31 g ai/ha): 80
Plant response rating, Crabgrass, Large (large crabgrass; 16 g ai/ha, preemergence): 60
Crabgrass, Large plant response rating (large crabgrass; 125 g ai/ha, preemergence): 90
Plant response rating, Crabgrass, Large (large crabgrass; Preemergence, 62 g ai/ha): 90
Plant response rating, Crabgrass, Large (large crabgrass; Preemergence, 31 g ai/ha): 70
Plant response rating, Prickly Sida (prickly sida; 16 g ai/ha, preemergence): 0
Prickly Sida plant response rating (prickly sida; 125 g ai/ha, preemergence): 60
Plant response rating, Prickly Sida (prickly sida; Preemergence, 62 g ai/ha): 40
Plant response rating, Prickly Sida (prickly sida; Preemergence, 31 g ai/ha): 20
Plant response rating, Morningglory (pitted morningglory; 16 g ai/ha, preemergence): 0
Plant response rating, Ryegrass, Italian (Italian ryegrass; 16 g ai/ha, preemergence): 65
Ryegrass, Italian plant response rating (Italian ryegrass; preemergence): 100
Plant response rating, Ryegrass, Italian (Italian ryegrass; Preemergence, 62 g ai/ha): 100
Plant response rating, Ryegrass, Italian (Italian ryegrass; Preemergence, 31 g ai/ha): 65
Kochia plant response rating (kochia; 125 g ai/ha, preemergence): 100
Plant response rating, Kochia (kochia; Preemergence, 62 g ai/ha): 100
Plant response rating, Kochia (kochia; Preemergence, 31 g ai/ha): 25
Plant response rating, Guineagrass (guineagrass; 16 g ai/ha, preemergence): 50
Guineagrass plant response rating (guineagrass; 125 g ai/ha, preemergence): 100
Plant response rating, Guineagrass (guineagrass; Preemergence, 62 g ai/ha): 98
Plant response rating, Guineagrass (guineagrass; Preemergence, 31 g ai/ha): 98
Plant response rating, Surinam Grass (Surinam grass; 16 g ai/ha, preemergence): 60
Surinam Grass plant response rating (Surinam grass; preemergence): 100
Plant response rating, Surinam Grass (Surinam grass; Preemergence, 62 g ai/ha): 100
Plant response rating, Surinam Grass (Surinam grass; Preemergence, 31 g ai/ha): 100
Plant response rating, Goosegrass (goosegrass; 16 g ai/ha, preemergence): 35
Goosegrass plant response rating (goosegrass; 125 g ai/ha, preemergence): 100
Plant response rating, Goosegrass (goosegrass; Preemergence, 62 g ai/ha): 80
Plant response rating, Goosegrass (goosegrass; Preemergence, 31 g ai/ha): 65
Plant response rating, Bermudagrass (bermudagrass; 16 g ai/ha, preemergence): 20
Bermudagrass plant response rating (bermudagrass; 125 g ai/ha, preemergence): 95
Plant response rating, Bermudagrass (bermudagrass; Preemergence, 62 g ai/ha): 80
Plant response rating, Bermudagrass (bermudagrass; Preemergence, 31 g ai/ha): 60
